For the assay, the target named is T1, Recombinant human mPGES-1 (Homo sapiens, UniProt O14684).
T1 sequence (O14684 1-152): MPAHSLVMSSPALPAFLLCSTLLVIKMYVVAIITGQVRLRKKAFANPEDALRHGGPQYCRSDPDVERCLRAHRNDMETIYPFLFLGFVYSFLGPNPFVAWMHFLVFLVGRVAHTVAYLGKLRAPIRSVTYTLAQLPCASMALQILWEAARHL
Nature of the assay: In-vitro mPGES-1 enzyme inhibition assay (PGE2 formation from PGH2, HTRF detection). Conditions: for inhibition at 1 µM: 1 μM test compound, read-out: Percentage inhibition at 1 μM; for inhibition at 1 µM / inhibition at 10 µM: recombinant human mPGES-1 microsomal fraction; for inhibition at 10 µM: 10 μM test compound, read-out: Percentage inhibition at 10 μM; for IC50: class symbols, selected examples. The format is biochemical. In a few lines: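 IC50 values were derived by nonlinear regression of percent inhibition relative to enzyme reactions run without inhibitor. PGE2 formed from PGH2 with GSH was quantified by antibody-based HTRF after stannous chloride quench. Enzyme source was human mPGES-1 microsomes at 40-60 μg/mL protein; DMSO 0.5% (v/v).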

A value given as a limit tells only on which side of the number the result lay.

Turning to `Cc1cccc(Cl)c1Nc1nc2cc(C(=O)Nc3cccc(C(C)(F)F)c3)c3c(c2[nH]1)CC(C)(C)O3` [Example-120, 2-[(2-Chloro-6-methylphenyl)amino]-N-[3-(1,1-difluoroethyl)phenyl]-7,7-dimethyl-7,8-dihydro-1H-furo[3,2-e]benzimidazole-5-carboxamide], the inhibition at 1 µM is 90.5%, the inhibition at 10 µM was 99% and the IC50 is < 50 nM.

With `Cc1ccc(Nc2nc3cc(C(=O)Nc4ccc(C(F)(F)F)cc4)c4c(c3[nH]2)CC(C)(C)O4)c(Cl)c1` [Example-87, 2-[(2-Chloro-4-methylphenyl)amino]-7,7-dimethyl-N-[4-(trifluoromethyl)phenyl]-7,8-dihydro-1H-furo[3,2-e]benzimidazole-5-carboxamide], the inhibition at 1 µM was found to be 87.4%, the inhibition at 10 µM is 92.2% and the IC50 was < 50 nM.

On to `CCCCCNC(=O)c1cc2nc(Nc3c(Cl)cccc3Cl)[nH]c2c2c1OC(C)(C)C2` [Example-9, 2-[(2,6-Dichlorophenyl)amino]-7,7-dimethyl-N-pentyl-7,8-dihydro-1H-furo[3,2-e]benzimidazole-5-carboxamide], for which the inhibition at 1 µM was 83%, the inhibition at 10 µM is 83.1% and the IC50 is < 50 nM.

For the molecule `CC1(C)Cc2c(c(C(=O)Nc3nc4ccc(F)cc4s3)cc3nc(Nc4c(Cl)cccc4Cl)[nH]c23)O1` [Example-95, 2-[(2,6-Dichlorophenyl)amino]-N-(6-fluoro-1,3-benzothiazol-2-yl)-7,7-dimethyl-7,8-dihydro-1H-furo[3,2-e]benzimidazole-5-carboxamide], the inhibition at 1 µM came out at 90.6%, the inhibition at 10 µM was determined as 91.8% and the IC50 is < 50 nM.

Consider `Cc1nc2c(o1)c(C(=O)NCc1ccccc1C(F)(F)F)cc1nc(Nc3c(Cl)cccc3Cl)[nH]c12` [Example-188, 7-[(2,6-Dichlorophenyl)amino]-2-methyl-N-[2-(trifluoromethyl)benzyl]-8H-imidazo[4,5-e][1,3]benzoxazole-4-carboxamide], for which the inhibition at 1 µM amounted to 98.1%, the inhibition at 10 µM is 99.4% and the IC50 lay in the range of 50 to 100 nM.

For `Cc1ccc(Cl)c(Nc2nc3cc(C(=O)Nc4cccc(C(F)(F)F)c4)c4c(c3[nH]2)CC(C)(C)O4)c1` [Example-123, 2-[(2-Chloro-5-methylphenyl)amino]-7,7-dimethyl-N-[3-(trifluoromethyl)phenyl]-7,8-dihydro-1H-furo[3,2-e]benzimidazole-5-carboxamide], the inhibition at 1 µM amounted to 91.1%, the inhibition at 10 µM was 98.9% and the IC50 is < 50 nM.

For the molecule `CC1(C)Cc2c(c(C(=O)NCC3CCCCC3)cc3nc(Nc4c(Cl)cncc4Cl)[nH]c23)O1` [Example-27, N-(Cyclohexylmethyl)-2-[(3,5-dichloropyridin-4-yl)amino]-7,7-dimethyl-7,8-dihydro-1H-furo[3,2-e]benzimidazole-5-carboxamide], the inhibition at 1 µM turned out to be 93.7% and the inhibition at 10 µM stood at 93%.

`CC1(C)Cc2c(c(C(=O)NCCN3CCOCC3)cc3nc(Nc4c(Cl)cccc4Cl)[nH]c23)O1` [Example-70, 2-[(2,6-Dichlorophenyl)amino]-7,7-dimethyl-N-[2-(morpholin-4-yl)ethyl]-7,8-dihydro-1H-furo[3,2-e]benzimidazole-5-carboxamide]: the inhibition at 1 µM is 69.1% and the inhibition at 10 µM was determined as 88.2%.

As for `CC1(C)Cc2c(c(C(=O)Nc3cc(C(F)(F)F)ccc3F)cc3nc(NCc4ccccc4Cl)[nH]c23)O1` [Example-145, 2-((2-Chlorobenzyl)amino)-N-(2-fluoro-5-(trifluoromethyl)phenyl)-7,7-dimethyl-7,8-dihydro-1H-benzofuro[4,5-d]imidazole-5-carboxamide], the inhibition at 1 µM came out at 59.5% and the inhibition at 10 µM worked out at 60.4%.

Turning to `Cc1cc2c(o1)c(C(=O)Nc1cccc(C(F)(F)F)c1)cc1nc(Nc3c(Cl)cccc3Cl)[nH]c12` [Example-68, 2-[(2,6-Dichlorophenyl)amino]-7-methyl-N-[3-(trifluoromethyl)phenyl]-1H-furo[3,2-e]benzimidazole-5-carboxamide], the inhibition at 1 µM was 97.6% and the inhibition at 10 µM was determined as 98.5%.

In the case of `CC1CC2CC(C1NC(=O)c1cc3nc(Nc4c(Cl)cncc4Cl)[nH]c3c3c1OC(C)(C)C3)C2(C)C` (stereo not shown) [Example-17, 2-[(3,5-Dichloropyridin-4-yl)amino]-7,7-dimethyl-N-(3,6,6-trimethylbicyclo[3.1.1]hept-2-yl)-7,8-dihydro-1H-furo[3,2-e]benzimidazole-5-carboxamide], the inhibition at 1 µM is 98%, the inhibition at 10 µM is 96.1% and the IC50 is < 50 nM.

For the molecule `CC1(C)Cc2c(c(C(=O)Nc3ccccc3C(F)(F)F)cc3nc(Nc4c(Cl)cccc4Cl)[nH]c23)O1` [Example-75, 2-[(2,6-Dichlorophenyl)amino]-7,7-dimethyl-N-[2-(trifluoromethyl)phenyl]-7,8-dihydro-1H-furo[3,2-e]benzimidazole-5-carboxamide], the inhibition at 1 µM was determined as 94.8%, the inhibition at 10 µM stood at 95% and the half-maximal inhibitory concentration (IC50) was < 50 nM.

For `CC1(C)Cc2c(c(C(=O)NC3(c4ccccc4C(F)(F)F)CC3)cc3nc(Nc4c(F)cccc4Cl)[nH]c23)O1` [Example-118, 2-[(2-Chloro-6-fluorophenyl)amino]-7,7-dimethyl-N-{1-[2-(trifluoromethyl)phenyl]cyclopropyl}-7,8-dihydro-1H-furo[3,2-e]benzimidazole-5-carboxamide], the inhibition at 1 µM is 97%, the inhibition at 10 µM stood at 98.7% and the IC50 was > 100 nM.

As to `CC1(C)Cc2c(c(C(=O)Nc3ccccc3F)cc3nc(Nc4c(Cl)cccc4Cl)[nH]c23)O1` [Example-30, 2-[(2,6-Dichlorophenyl)amino]-N-(2-fluorophenyl)-7,7-dimethyl-7,8-dihydro-1H-furo[3,2-e]benzimidazole-5-carboxamide], the inhibition at 1 µM was 93.8%, the inhibition at 10 µM was 92.5% and the IC50 was < 50 nM.

Regarding `CC1(C)Cc2c(c(C(=O)Nc3ccc(C(F)(F)F)cc3)cc3nc(Nc4ccccc4Cl)[nH]c23)O1` [Example-89, 2-[(2-Chlorophenyl)amino]-7,7-dimethyl-N-[4-(trifluoromethyl)phenyl]-7,8-dihydro-1H-furo[3,2-e]benzimidazole-5-carboxamide], the inhibition at 1 µM is 97.1%, the inhibition at 10 µM stood at 97.1% and the IC50 was < 50 nM.

On to `CC1(C)Cc2c(c(C(=O)Nc3ccc(OCC4CC4)nc3)cc3nc(Nc4c(F)cccc4Cl)[nH]c23)O1` [Example-125, 2-[(2-Chloro-6-fluorophenyl)amino]-N-[6-(cyclopropylmethoxy)pyridin-3-yl]-7,7-dimethyl-7,8-dihydro-1H-furo[3,2-e]benzimidazole-5-carboxamide], for which the inhibition at 1 µM turned out to be 10.6% and the inhibition at 10 µM was 76.7%.

For `CC1(C)Cc2c(c(C(=O)Nc3ccc(F)c(F)c3F)cc3nc(Nc4c(Cl)cncc4Cl)[nH]c23)O1` [Example-212, 2-((3,5-Dichloropyridin-4-yl)amino)-7,7-dimethyl-N-(2,3,4-trifluorophenyl)-7,8-dihydro-1H-benzofuro[4,5-d]imidazole-5-carboxamide], the inhibition at 1 µM came to 95.1%, the inhibition at 10 µM was 98.8% and the IC50 was < 50 nM.

Regarding `Cn1c(Nc2c(Cl)cncc2Cl)nc2cc(C(=O)Nc3cc(C4CC4)ccc3F)c3c(c21)CC(C)(C)O3` [Example-217, N-(5-Cyclopropyl-2-fluorophenyl)-2-((3,5-dichloropyridin-4-yl)amino)-1,7,7-trimethyl-7,8-dihydro-1H-benzofuro[4,5-d]imidazole-5-carboxamide], the inhibition at 1 µM was 96.2% and the inhibition at 10 µM was 99.9%.

For `Cc1cccc(Cl)c1Nc1nc2cc(C(=O)Nc3ccc(F)c(C(F)(F)F)c3)c3c(c2[nH]1)CC(C)(C)O3` [Example-133, 2-((2-Chloro-6-methylphenyl)amino)-N-(4-fluoro-3-(trifluoromethyl)phenyl)-7,7-dimethyl-7,8-dihydro-1H-benzofuro[4,5-d]imidazole-5-carboxamide], the inhibition at 1 µM came to 91.4%, the inhibition at 10 µM is 96.5% and the IC50 was < 50 nM.

As for `CC1(C)Cc2c(c(C(=O)N3CCOCC3)cc3nc(Nc4c(Cl)cncc4Cl)[nH]c23)O1` [Example-20, {2-[(3,5-Dichloropyridin-4-yl)amino]-7,7-dimethyl-7,8-dihydro-1H-furo[3,2-e]benzimidazol-5-yl}(morpholin-4-yl)methanone], the inhibition at 1 µM is 10.5% and the inhibition at 10 µM is 44.9%.

With `CC1(C)Cc2c(c(C(=O)NCc3ccccc3C(F)(F)F)cc3nc(Nc4c(F)cccc4Cl)[nH]c23)O1` [Example-80, 2-[(2-Chloro-6-fluorophenyl)amino]-7,7-dimethyl-N-[2-(trifluoromethyl)benzyl]-7,8-dihydro-1H-furo[3,2-e]benzimidazole-5-carboxamide], the inhibition at 1 µM turned out to be 93.2%, the inhibition at 10 µM was determined as 92% and the IC50 is < 50 nM.

Consider `Cn1c(Nc2c(Cl)cncc2Cl)nc2cc(C(=O)Nc3cc(C(F)(F)F)ccc3F)c3c(c21)CC(C)(C)O3` [Example-218, 2-((3,5-Dichloropyridin-4-yl)amino)-N-(2-fluoro-5-(trifluoromethyl)phenyl)-1,7,7-trimethyl-7,8-dihydro-1H-benzofuro[4,5-d]imidazole-5-carboxamide], for which the inhibition at 1 µM was determined as 99.4% and the inhibition at 10 µM stood at 100%.

(Values after patent US8519149B2, “Tricyclic compounds as mPGES-1 inhibitors” (Glenmark Pharmaceuticals S.A., priority 2010, dated 2013).)
